Measurements reported in patent US20220015355A1, “NOVEL CARRIER FLUIDS FOR LIQUID FUNGAL SPORE FORMULATIONS” (priority 2018, published 2022).
Where two headings read alike, the source gives them in different places. Marks after values point to notes of the source that are not given here.

Experiments:
[1] = system: P. lilacinum strain 251 spores; test: spore viability (germination rate on agar) of P. lilacinum spores in carrier fluid after storage at 30° C.; assay type: cell-based, Purpureocillium lilacinum; conditions: for decline in spore viability at day 1 and after storage: fluids not within the scope of the invention
Protocol: (§1) 3 g of P. lilacinum strain 251 pure spore powder were transferred into a formulation vessel (IKA Type DT-20 mixing vessel with dispersion tool for Ultra Turrax) using a sterile spoon. 12 mL of fluid were added into the respective formulation vessel and dispersed using ultra turrax tube drive control for 1 min at 3000 rpm; change direction after 30 sec. After this 2.8 mL were transferred in four sample bottles (Wheaton Serum vial, Type I) leaving little headspace and closed tight using crimpneck caps (Macherey—Nagel type N 13) Afterwards all sample bottles were transferred to an incubator set at 30° C. and stored for a given time.
(§2) In regular intervals a sample was retrieved from the storage location and analyzed for spore viability. Therefore the original samples were thoroughly homogenized. Aliquots of 0.25 g or […] of each sample are transferred into 50 mL falcon tubes. The tubes were filled up to 25 g using a sterile aqueous solution containing 2% Tween 80 and homogenized by vortexing to achieve the first dilution step (1:100 dilution). This dilution is used for further dilution and spotting on agar.
(§3) For evaluation of spore germination rate prepare a 1:30000 dilution based on the 1:100 dilution achieved by multiple automated dilution (pipetting robot, 96 well plate). Afterwards 12×12 cm agar plates are taken and spotted with 10 times […] of each sample using an automated 12-Channel pipet. Wait until liquid is soaked up by agar and transfer agar plate to an incubator and incubate at 25° C. for 17 hours. Open the plate and place it under the microscope. Randomly choose one area per spot and record the number of germinated and non-germinated spores that are within the designated field. At least 200 spores per sample need to be evaluated. If needed count more than one field per spot.

[2] = system: Isaria fumosorosea spores; test: spore viability of Isaria fumosorosea spores in carrier fluid after storage, Method 2 (flow cytometry); assay type: cell-based
Protocol: Method 2: 0.5 g of Isaria fumosoresea pure spore powder were transferred into an Erlenmeyer flask using a sterile spoon. 24.5 mL of fluid were dispersed using Ultra-Turrax (IKA; Type T 25 D) for 1 min at 3,000 rpm. After this, 2.0 mL were transferred in 20 sample bottles (Wheaton Serum vial, Type I) leaving little headspace and closed tight using crimpneck caps (Macherey—Nagel type N 13). Afterwards all sample bottles were transferred to an incubator set at 30° C. and stored for a given time.
In regular intervals a sample was retrieved from the storage location and analyzed for spore viability. For this purpose, the original samples were thoroughly homogenized. Aliquots of 0.5 g of each sample were transferred into 100 mL-Erlenmeyer flask. The flasks were filled up to 50 g using a sterile aqueous solution containing 0.1% Break Thru® 5240 (Evonik, Industries) and homogenized on a magnetic stirrer (Thermo Fisher Scientific: Cimarec™) at least for 15 min with 750 rpm to achieve the first dilution step (1:100 dilution). This dilution was used for further dilution.
Not all samples mixed well or mixed at all in 0.1% Break Thru 5240. For these samples, 500 μL Neo-wett (Kwizda Agro GmbH) and/or a small amount (knife tip) Metaupon®-OMT (LEUNA Tenside GmbH) were also added to the aqueous solution.
After homogenization 1 mL were transferred into a 1.5 mL tube and were centrifuged for 15 min at 14,000 rpm (Thermo Fisher Scientific, Type Megafuge 8R). The supernatant (=upper phase) was discarded by using a pipette. The tubes were filled up to 1 mL using a sterile aqueous solution containing 0.1% Neo-wett and homogenized by vortexing.
To assess fungal viability, a method based on flow cytometry was used.

[3] = system: Beauveria Bassiana spores; test: spore viability (germination rate on agar) of Beauveria bassiana spores in carrier fluid after storage at 30° C.; assay type: cell-based
Protocol: as §1, with “1.5 g” for “3 g”, “of Beauveria Bassiana” for “of P. lilacinum strain 251”, “spoon. 13.5” for “spoon. 12”
as §2
as §3, with “1:15000” for “1:30000”, “20°” for “25°”

[4] = system: Penicillium bilaii (ATCC 20851) spores; test: spore viability (germination rate on agar) of Penicillium bilaii spores in carrier fluid after storage at 30° C.; assay type: cell-based
Protocol: as §1, with “1.5 g” for “3 g”, “of Penicillium bilaii (ATCC 20851)” for “of P. lilacinum strain 251”, “spoon. 13.5” for “spoon. 12”
as §2
as §3, with “1:15000” for “1:30000”, “20°” for “25°”

[5] = P. lilacinum strain 251 in the liquid, day 1
[6] = Purpureocillium lilacinum, 35 d

Compound: 2-(2-Ethoxyethoxy)ethyl acetate; Diethylene glycol monoethyl ether acetate [n-Butyldiglycolacetat]
- spore viability [%] at day 1 [1, 5]: 93.2%
- spore viability [%] after 3 m (87-92 d) ([1]; storage at 30° C., 87-92 d): 82.7%
- spore viability [%] after 5 w (35 d) ([1]; storage at 30° C., 35 d): 89.3%

Compound: CCCCOCCO [Butylcellosolve, Ethylenglycolmonobutylether, reference compound]
- decline in spore viability at day 1 and after storage ([1]; text summary of Table I): steep decline in spore viability

Compound: CCOCCOCCO [Carbitol, Diethylenglycolmonoethyl ether, reference compound]
- spore viability [%] after 1 m (27 d) [2]: 12.0%
- spore viability [%] after 2 w (~14 d) [2]: 13.7%
- spore viability [%] at day 1 [2]: 78.0%

Compound: COC(C)COC(C)CO (centres unmarked) [Dowanol DPM, Dipropylene Glycol monomethyl ether]
- spore viability [%] at day 1 [1, 5]: 91.0%
- spore viability [%] after 2 w (12-15 d) ([1]; storage at 30° C., 12-15 d): 95.3%
- spore viability [%] after 1 m (27-28 d) ([1]; storage at 30° C., 27-28 d): 93.3%
- spore viability [%] after 2 m (51-55 d) ([1]; storage at 30° C., 51-55 d): 74.7%
- spore viability [%] at day 1 ([3]; Beauveria bassiana, day 1): 83.9%
- spore viability [%] after 2 w (14 d) ([3]; storage at 30° C.): 61.0%
- spore viability [%] after 5 w (35 d) ([3]; storage at 30° C.): 36.6%

Compound: CC(=O)OCC(C)OC(C)=O (centres unmarked) [Dowanol PGDA, Propylenglycol Diacetat]
- spore viability [%] 3 m@30° C. (83-85 d) ([4]; Penicillium bilaii): 36.4%
- spore viability [%] 6 w@30° C. (41-43 d) ([4]; Penicillium bilaii): 69.3%
- spore viability [%] initial (1-2 d) ([4]; Penicillium bilaii): 93.6%
- spore viability [%] at day 1 ([2]; Isaria fumosorosea, 1 d): 97.0%
- spore viability [%] after 1 m (27 d) ([2]; Isaria fumosorosea, 27 d): 53.0%
- spore viability [%] after 3 m (87-92 d) ([1]; Purpureocillium lilacinum): 88.4%
- spore viability after storage for 2 or 3 months, respectively ([1]; Purpureocillium lilacinum): ≥ 80%
- spore viability [%] at day 1 ([1]; Purpureocillium lilacinum, 1 d): 98.8%
- spore viability [%] after 5 w (35 d) [1, 6]: 98.2%
- spore viability [%] at day 1 ([3]; Beauveria bassiana, 1 d): 90.6%
- spore viability [%] after 3 w (21 d) ([3]; Beauveria bassiana, 21 d): 51.6%

Compound: CCCCCCOCCO [Hexylcellosolve, Ethylenglycolmonohexylester, reference compound]
- spore viability [%] after 3 m (87-92 d) [1]: 6.0%
- spore viability [%] after 5 w (35 d) [1]: 27.4%
- spore viability [%] at day 1 [1]: 79.5%
- decline in spore viability at day 1 and after storage ([1]; text summary of Table I): steep decline in spore viability

Compound: COCCOCCOCCO [Methoxytriglycol, Triethylenglycol monomethyl ether, reference compound]
- spore viability [%] 3 m@30° C. (83-85 d) ([4]; Penicillium bilaii): 30.3%
- spore viability [%] 6 w@30° C. (41-43 d) ([4]; Penicillium bilaii): 43.1%
- spore viability [%] initial (1-2 d) ([4]; Penicillium bilaii): 74.3%
- spore viability [%] after 3 m (87-92 d) ([1]; Purpureocillium lilacinum): 19.9%
- spore viability [%] at day 1 ([1]; Purpureocillium lilacinum, 1 d): 83.3%
- spore viability [%] after 5 w (35 d) [1, 6]: 55.3%
- decline in spore viability at day 1 and after storage ([1]; text summary of Table I): steep decline in spore viability
- spore viability [%] at day 1 ([3]; Beauveria bassiana, 1 d): 79.7%
- spore viability [%] after 2 w (14 d) ([3]; Beauveria bassiana): 12.3%
- spore viability [%] after 5 w (35 d) ([3]; Beauveria bassiana): 1.5%
- decline in spore viability after storage under given conditions ([3]; Table III, fluids not within the scope of the invention): steep decline in spore viability

Compound: COCC(C)OCC(C)OC (centres unmarked) [Proglyde DMM, Dipropylene glycol dimethyl ether]
- spore viability [%] 3 m@30° C. (83-85 d) ([4]; Penicillium bilaii): 10.5%
- spore viability [%] 6 w@30° C. (41-43 d) ([4]; Penicillium bilaii): 29.6%
- spore viability [%] initial (1-2 d) ([4]; Penicillium bilaii): 54.6%
- spore viability [%] after 3 m (87-92 d) ([1]; Purpureocillium lilacinum): 75.4%
- spore viability [%] at day 1 ([1]; Purpureocillium lilacinum, 1 d): 98.8%
- spore viability [%] after 5 w (35 d) [1, 6]: 96.0%
- spore viability [%] at day 1 ([3]; Beauveria bassiana, 1 d): 88.4%
- spore viability [%] after 2 w (14 d) ([3]; Beauveria bassiana): 48.0%
- spore viability [%] after 5 w (35 d) ([3]; Beauveria bassiana): 21.8%

Compound: CCCOCCO [Propylcellosolve, Ethylenglycolmonopropylether, reference compound]
- spore viability [%] after 3 m (87-92 d) [1]: 0.6%
- spore viability [%] after 5 w (35 d) [1]: 8.1%
- spore viability [%] at day 1 [1]: 76.2%
- decline in spore viability at day 1 and after storage ([1]; text summary of Table I): steep decline in spore viability

Compound: COCCOCCOCCOCCOC [Tetraglyme, Tetraethylenglycol diether]
- spore viability [%] after 1 m (27-28 d) [1]: 94.8%
- spore viability [%] after 2 m (51-55 d) [1]: 93.2%
- spore viability [%] after 2 w (12-15 d) [1]: 97.6%
- spore viability [%] after 7 m (210 d) [1]: 83.5%
- spore viability [%] at day 1 [1]: 97.2%
- spore viability after storage for 7 months at 30° C. (in words) ([1]; text summary of Table I): exceptional spore viability

Compound: CCCCOCCOCCOCCO [Triethylenglycol monobutylether, Triethylenglycol-monobutylether]
- spore viability [%] after 1 m (27-28 d) ([1]; Purpureocillium lilacinum): 57.5%
- spore viability [%] after 3 m (87-92 d) ([1]; Purpureocillium lilacinum): 50.8%
- spore viability [%] at day 1 ([1]; Purpureocillium lilacinum, 1 d): 77.5%

Compound: Polyethylene glycol Monooleate [Alkamuls A]
- spore viability [%] after 1 m (27 d) [2]: 90.7%
- spore viability [%] after 2 w (~14 d) [2]: 93.0%
- spore viability [%] at day 1 [2]: 94.4%

Compound: Polyethyleneglycol-400 monolaurate [Radiasurf 7423]
- spore viability [%] after 1 m (27 d) [2]: 42.3%
- spore viability [%] after 2 w (~14 d) [2]: 58.0%
- spore viability [%] at day 1 [2]: 86.7%
- spore viability [%] after 1 m (27-28 d) [1]: 93.8%
- spore viability [%] after 2 m (51-55 d) [1]: 79.7%
- spore viability [%] after 2 w (12-15 d) [1]: 91.4%
- spore viability [%] after 7 m (210 d) [1]: 36.9%
- spore viability [%] at day 1 [1]: 90.8%
- spore viability after storage for 2 or 3 months, respectively [1]: ≥ 80%

Compound: Polyethylenglycol- 300 [Pluriol E300]
- spore viability [%] after 1 m (27 d) [2]: 87.0%
- spore viability [%] after 3 months [2]: 45.0* %
- spore viability [%] at day 1 [2]: 96.0%

Compound: Tween 80
- spore viability [%] after 1 m (27 d) [2]: 72.0%
- spore viability [%] after 2 w (~14 d) [2]: 76.4%
- spore viability [%] at day 1 [2]: 96.2%

Compound: Tween 85
- spore viability [%] after 2 months [4]: 92.0$ %
- spore viability [%] initial (1-2 d) [4]: 99.0%
- spore viability [%] after 1 m (27 d) [2]: 98.0%
- spore viability [%] after 6 months [2]: 96.1*** %
- spore viability [%] at day 1 [2]: 98.9%
- spore viability after storage for 7 m at 30° C. [2]: ≥ 50%
